Assay results published in patent publication US7501443B2, “Flavaxate derivatives as muscarinic receptor antagonists” (Ranbaxy Laboratories Limited, priority 2002, dated 2009).
pKi: −log10 of the molar value.

Key:
M3 muscarinic receptor = biological target: T1, M3 muscarinic receptor (Rattus norvegicus, UniProt P08483); experiment: Radioligand binding assay, [3H]-N-methylscopolamine, rat submandibular gland membranes; details: [3H]-NMS binding, Ki by Cheng & Prusoff; for pKi: read-out: M3 pki
T1 construct: Submandibular glands and heart were isolated and placed in ice cold homogenising buffer; from tissue; host or cells: rat submandibular gland membrane homogenate
T1 sequence (P08483 whole entry): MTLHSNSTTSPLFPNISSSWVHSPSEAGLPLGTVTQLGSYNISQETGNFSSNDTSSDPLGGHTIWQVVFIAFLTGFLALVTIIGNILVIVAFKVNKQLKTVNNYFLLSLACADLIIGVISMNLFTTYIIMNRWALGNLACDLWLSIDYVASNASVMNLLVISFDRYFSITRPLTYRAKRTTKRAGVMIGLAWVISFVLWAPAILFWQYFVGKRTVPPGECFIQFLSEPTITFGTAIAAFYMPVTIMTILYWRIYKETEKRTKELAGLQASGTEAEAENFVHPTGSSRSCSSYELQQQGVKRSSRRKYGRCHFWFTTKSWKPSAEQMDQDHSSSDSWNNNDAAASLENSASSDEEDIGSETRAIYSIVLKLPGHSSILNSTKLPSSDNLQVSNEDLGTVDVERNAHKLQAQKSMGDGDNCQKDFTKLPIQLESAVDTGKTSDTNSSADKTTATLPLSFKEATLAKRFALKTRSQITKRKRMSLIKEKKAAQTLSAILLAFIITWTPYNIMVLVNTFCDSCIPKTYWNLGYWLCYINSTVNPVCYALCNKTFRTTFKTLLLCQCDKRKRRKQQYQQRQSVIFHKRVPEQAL
Method: (§1) Radioligand Binding Assays: • The affinity of test compounds for M2 and M3 muscarinic receptor subtypes was determined by [^3H]-N-methylscopolamine binding studies using rat heart and submandibular gland respectively as described by Moriya et al., (Life Sci, 1999, 64(25):2351-2358) with minor modifications. Membrane preparation: Submandibular glands and heart were isolated and placed in ice cold homogenising buffer (HEPES 20 mM, 10 mM EDTA, pH 7.4) immediately after sacrifice. The tissues were homogenised in 10 volumes of homogenising buffer and the homogenate was filtered through two layers of wet gauze and filtrate was centrifuged at 500 g for 10 min. The supernatant was subsequently centrifuged at 40,000 g for 20 min. The pellet thus obtained was resuspended in same volume of assay buffer (HEPES 20 mM, EDTA 5 mM, pH 7.4) and were stored at −70° C. until the time of assay. Ligand binding assay: The compounds were dissolved and diluted in DMSO. The membrane homogenates (150-250 μg protein) were incubated in 250 μl of assay buffer (HEPES 20 mM, pH 7.4) at 24-25° C. for 3 h. Non-specific binding was determined in the presence of 1 μM atropine. The incubation was terminated by vacuum filtration over GF/B fiber filters(Wallac). The filters were then washed with ice cold 50 mM Tris HCl buffer (pH 7.4). The filter mats were dried and bound radioactivity retained on filters was counted. The IC50 & Kd were estimated by using the non-linear curve fitting program using G Pad Prism software. The value of inhibition constant Ki was calculated from competitive binding studies by using Cheng & Prusoff equation (Biochem Pharmacol, 1973, 22: 3099-3108), Ki=IC50/(1+L/Kd), where L is the concentration of [^3H]NMS used in the particular experiment. pki is—[log Ki].

M2 muscarinic receptor = biological target: T2, M2 muscarinic receptor (Rattus norvegicus, UniProt P10980); experiment: Radioligand binding assay, [3H]-N-methylscopolamine, rat heart membranes; details: [3H]-NMS binding, Ki by Cheng & Prusoff; for pKi: read-out: M2 pki
T2 construct: Submandibular glands and heart were isolated and placed in ice cold homogenising buffer; from tissue; host or cells: rat heart membrane homogenate
T2 sequence (P10980 1-466): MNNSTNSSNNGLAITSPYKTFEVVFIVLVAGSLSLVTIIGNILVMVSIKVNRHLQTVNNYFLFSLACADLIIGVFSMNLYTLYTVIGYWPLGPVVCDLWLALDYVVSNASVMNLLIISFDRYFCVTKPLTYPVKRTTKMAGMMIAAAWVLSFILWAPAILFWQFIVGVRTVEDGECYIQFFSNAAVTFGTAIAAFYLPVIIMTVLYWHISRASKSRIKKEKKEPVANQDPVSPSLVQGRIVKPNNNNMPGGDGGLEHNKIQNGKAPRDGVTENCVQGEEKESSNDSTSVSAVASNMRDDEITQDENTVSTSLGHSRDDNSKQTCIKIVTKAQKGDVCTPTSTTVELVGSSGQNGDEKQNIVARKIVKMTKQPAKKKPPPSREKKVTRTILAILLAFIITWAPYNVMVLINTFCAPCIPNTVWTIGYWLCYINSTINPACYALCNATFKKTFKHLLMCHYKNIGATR
Method: as §1

Compound | M3 pki (M3 muscarinic receptor) | M2 pki (M2 muscarinic receptor) | melting point [°C] | pKi (M3 muscarinic receptor) | pKi (M2 muscarinic receptor)
Cc1c(-c2ccccc2)oc2c(C(=O)NCC3C4CN(Cc5ccccc5)CC34)cccc2c1=O (stereo not drawn) [Compound No. 3, (1α,5α,6α)-N-[3-benzyl-3-azabicyclo[3.1.0]hexyl-6-(aminomethyl)-yl]-3-methyl-4-oxo-2-phenyl-4H-1-benzopyran-8-carboxamide] | 5.1 | <5.3 |  |  | 
Cc1c(-c2ccccc2)oc2c(C(=O)N[C@H]3[C@@H]4CN(Cc5ccccc5)C[C@@H]43)cccc2c1=O [Compound No. 1, (1α,5α,6α)-6N-[3-benzyl-3-azabicyclo[3.1.0]hexyl]-3methyl-4-oxo-2-phenyl-4H-1-benzopyran-8-carboxamide] |  |  | 182 to 184 | < 5.00 | < 5.00
Cc1c(-c2ccccc2)oc2c(C(=O)N[C@H]3[C@@H]4CN(Cc5ccc(C#N)cc5)C[C@@H]43)cccc2c1=O [Compound No. 2, (1α,5α,6α)-6N-[3-(4-cyanobenzyl)-3-azabicyclo[3.1.0]hexyl]-3-methyl-4-oxo-2-phenyl-4H-1-benzopyran-8-carboxamide] |  |  |  | < 5.00 | < 5.00
(1α,5α,6α)-N-[3-[4-methyl-3-pentenyl]-3-azabicylo[3.1.0]hexyl-6-(aminomethyl)-3-methyl-4-oxo-2-phenyl-4H-1-benzo-pyran-8-carboxamide [Compound No. 4] | <6 | <6 |  |  | 
Cc1c(-c2ccccc2)oc2c(C(=O)NCC34CC3CN(Cc3ccccc3)C4)cccc2c1=O (centres unmarked) [Compound No. 5, N-[3-benzyl-3-azabicyclo[3.1.0]hexyl-1-(aminomethyl)-yl]-3-methyl-4-oxo-2-phenyl-4H-1-benzopyran-8-carboxamide] |  |  |  | < 6.00 | < 6.00
